Measured values: patent EP1478365B1 (Nowak, Götz, priority 2002, dated 2003)

Test system: Dottersackgefäßsystem von Hühnerembryonen
Assay: animal or person
Details: for Hemmung: time point not stated
Description: Cyproheptadin (Peritol®) wird aufgrund seiner zentralen Wirkung als Appetitsstimulanz in der Klinik verwendet. Als Nebenwirkungen waren bisher im wesentlichen sedierende Effekte bekannt. […] Zur Wirkungsanalyse wurde die Gefäßentwicklung der Dottersackmembran von befruchteten Hühnereiern benutzt. Das Modell hat den Vorteil, daß die Entwicklung dieses primären Gefäßsystems der Hühnerembryonen Kapillaren erzeugt, die eine große Ähnlichkeit mit Tumorgefäßen haben. Diese Kapillaren sind stärker fenestriert und sind anatomisch den Tumorvaskularitäten ähnlich.
Bei 30 ex ovo bebrüteten Hühnereiern werden jeweils auf zwei Bereiche des Dottersackgefäßsystems 1,5 µl eines 3%igen Traganth-Gels, in dem Cyproheptadin in der zu untersuchenden Konzentration eingebracht wurde, appliziert. Bei weiterer Bebrütung in einem Sterilinkubator bei 37°C und 85% Luftfeuchtigkeit entwickeln sich die pre- bzw. postkapillären Gefäßstrukturen der Dottersackvaskularitäten, die 9 h und 24 h post applicationem semiquantitativ bewertet werden.
Ebenfalls nach 9 h und 24 h werden die Applikationsstellen bewertet.

Structure (SMILES): CN1CCC(=C2c3ccccc3C=Cc3ccccc32)CC1 [Cyproheptadin]
- Wirkung 24 h nach Applikation (24 h values compared with 9 h values): in leicht abgeschwächter Form noch vorhanden
- Emax (Gallus gallus, read-out: maximale Wirkungsstärke): 76%
- Hemmung der Dottersackangiogenese, wirksame Konzentrationen (effective concentration range in words): in nanomolaren Konzentrationen
- Hemmung (single substance at its IC 25 concentration): 20,3%
- Hemmung (single substance at its IC 50 concentration): 37,9%
- Hemmung (single substance at its IC 75 concentration): 65,8%
- Hemmung (single substance at its IC 100 concentration): 76,6%
- Angiogenese bei sehr hohen Konzentrationen (very high concentrations): totale Verhinderung einer Angiogenese
